In article PMC7252514 (Science (New York, N.Y.), 2019):
Blank lines part the entries; values can stand above or below the molecule they belong to.

Columns and labels:
[1] = target: T1, PSAM^4-5HT3 (Homo sapiens, UniProt P36544, L131G/Q139L/Y217F, form not given, species not given); assay: Membrane potential; type: cell-based; settings: endogenous ligands
[2] = tested on: PgP; settings: cited from earlier work
[3] = target: α7^L131G,Q139L,Y217F-GlyR (PSAM^4-GlyR) (Homo sapiens, UniProt P36544, L131G/Q139L/Y217F); assay: Membrane potential; type: cell-based
[4] = target: α7^L131G,Q139L,Y217F-GlyR (Homo sapiens, UniProt P23415+P36544, L131G/Q139L/Y217F); assay: Electrophysiological recordings from HEK-293 cells expressing PSAM4-GlyR; type: cell-based
[5] = target: α7 nAChR (Homo sapiens, UniProt P36544); assay: Agonist activity at α7 nAChR; type: cell-based
[6] = tested on: α7^L131G-GlyR; assay: Membrane potential; type: cell-based; settings: α7L131G-GlyR versus parent channel
[7] = target: T1, PSAM^4-5HT3; assay: Electrophysiology of PSAM4-5HT3 currents; type: cell-based; settings: off-rate
[8] = tested on: PSAM^4-GlyR-expressing layer 2/3 cortical neurons; type: cell-based, mice; settings: varenicline 10 – 16 nM
[9] = tested on: PSAM^4-GlyR in SNr GABAergic neurons; assay: Unilateral SNr silencing rotation assay in PSAM4-GlyR mice; type: in vivo
[10] = tested on: PSAM^4-GlyR in GPi neurons; assay: In vivo electrophysiology of GPi neurons transduced with PSAM4-GlyR; set-up: species or system rhesus monkey; settings: subcutaneous 0.1 mg/kg, versus varenicline prior to AAV transduction
[11] = Food intake; type: in vivo, mice; settings: elevated doses
[12] = tested on: cultured hippocampal neurons expressing PSAM^4-GlyR; assay: Continuous silencing of cultured hippocampal neurons expressing PSAM4-GlyR; type: cell-based; settings: varenicline 15 nM for 3 – 18 days
[13] = cited from earlier work
[14] = tested on: PSAM^4-5HT3 HC-expressing layer 2/3 cortical neurons; assay: Depolarization of layer 2/3 cortical neurons expressing PSAM4-5HT3 HC; settings: varenicline 15 nM
[15] = tested on: cultured hippocampal neuron expressing PSAM^4-5HT3; assay: Sustained depolarization of cultured hippocampal neurons by PSAM4-5HT3; settings: continuous varenicline 15 nM exposure

T1 sequence (P23979 242-489, form open): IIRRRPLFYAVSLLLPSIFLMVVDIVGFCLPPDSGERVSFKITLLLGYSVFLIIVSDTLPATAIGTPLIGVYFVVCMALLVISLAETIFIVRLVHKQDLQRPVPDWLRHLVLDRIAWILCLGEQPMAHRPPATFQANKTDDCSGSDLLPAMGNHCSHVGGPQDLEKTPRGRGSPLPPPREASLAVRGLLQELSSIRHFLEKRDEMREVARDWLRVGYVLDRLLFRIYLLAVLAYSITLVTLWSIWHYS
T1 sequence (P36544 23-224 L131G/Q139L/Y217F, form open): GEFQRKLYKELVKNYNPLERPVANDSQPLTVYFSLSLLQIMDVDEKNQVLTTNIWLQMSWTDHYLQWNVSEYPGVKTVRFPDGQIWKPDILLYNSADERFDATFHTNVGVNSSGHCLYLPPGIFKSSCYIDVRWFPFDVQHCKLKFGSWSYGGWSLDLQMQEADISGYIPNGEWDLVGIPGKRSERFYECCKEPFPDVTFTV
Sequence of α7 nAChR (P36544 23-502): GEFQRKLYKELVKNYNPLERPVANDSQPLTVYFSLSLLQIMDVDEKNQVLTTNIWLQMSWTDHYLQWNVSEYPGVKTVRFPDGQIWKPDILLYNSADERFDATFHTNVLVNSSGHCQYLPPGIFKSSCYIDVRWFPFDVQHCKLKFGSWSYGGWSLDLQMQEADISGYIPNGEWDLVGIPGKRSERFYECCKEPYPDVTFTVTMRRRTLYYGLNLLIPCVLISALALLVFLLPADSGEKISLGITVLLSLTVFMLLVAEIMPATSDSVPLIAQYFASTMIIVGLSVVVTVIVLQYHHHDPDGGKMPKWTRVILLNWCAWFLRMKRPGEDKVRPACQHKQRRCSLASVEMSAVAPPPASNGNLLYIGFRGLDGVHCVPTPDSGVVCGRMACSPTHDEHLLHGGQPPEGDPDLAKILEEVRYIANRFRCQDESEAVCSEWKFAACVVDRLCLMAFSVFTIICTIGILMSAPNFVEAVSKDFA
Sequence of α7^L131G,Q139L,Y217F-GlyR (PSAM^4-GlyR) (P36544 23-229 L131G/Q139L/Y217F): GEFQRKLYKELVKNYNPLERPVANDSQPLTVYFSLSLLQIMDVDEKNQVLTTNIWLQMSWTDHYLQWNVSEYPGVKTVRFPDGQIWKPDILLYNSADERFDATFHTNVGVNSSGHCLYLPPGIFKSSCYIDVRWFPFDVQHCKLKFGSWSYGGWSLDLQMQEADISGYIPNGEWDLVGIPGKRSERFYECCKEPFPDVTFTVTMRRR
Sequence of α7^L131G,Q139L,Y217F-GlyR (PSAM^4-GlyR) (P23415 248-457 partner): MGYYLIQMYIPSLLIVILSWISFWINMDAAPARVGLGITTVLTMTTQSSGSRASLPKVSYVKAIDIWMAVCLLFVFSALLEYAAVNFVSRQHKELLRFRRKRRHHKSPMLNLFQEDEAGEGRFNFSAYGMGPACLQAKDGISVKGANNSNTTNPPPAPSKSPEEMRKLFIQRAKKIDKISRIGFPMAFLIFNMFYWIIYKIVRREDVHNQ

SMILES: CC(=O)OCC[N+](C)(C)C [ACh, acetylcholine]
potency at PSAM4-5HT3 [1]: low potencies

SMILES: C[N+]1([O-])CCN(C2=Nc3cc(Cl)ccc3Nc3ccccc32)CC1 [CNO, clozapine-N-oxide]
PgP substrate [2]: substrate for the P-glycoprotein efflux pump

SMILES: C[N+](C)(C)CCO [choline]
EC50 [3]: 128 ± 32 µM
potency at PSAM4-5HT3 [1]: low potencies

SMILES: NCC(=O)O [glycine]
response to glycine [4]: did not respond

agonist activity at α7 nAChR [5]: no agonist activity
SMILES: CN1C2CCCC1CC(NC(=O)c1nn(C)c3ccccc13)C2 (centres unmarked) [granisetron]

SMILES: CN1[C@@H]2CC[C@H]1C[C@@H](OC(=O)c1c[nH]c3ccccc13)C2 [tropisetron]
potency enhancement [6]: 3 fold

SMILES: c1cnc2cc3c(cc2n1)[C@@H]1CNC[C@H]3C1 [varenicline]
potency enhancement [6]: 17 fold
t-off1/2 [7]: 3.2 ± 1.3 min
increase of current amplitude required to fire an action potential (rheobase) [8]: 6 fold
suppression of firing [8]: strongly suppressed firing
reduction of input resistance ([8]; on average): 3 fold
time for rotation activity to return nearly to baseline ([9]; intraperitoneal): ~4 h
time to evident behavioral effects of silencing ([9]; intraperitoneal): ≤ 20 min
lowest effective dose (LED) ([9]; intraperitoneal, onset of rotation, with amphetamine 3 mg/kg): 0.1 mg/kg
circling after oral delivery ([9]; oral delivery 5 μg/mL): elicited circling
GPi neuron firing rate and burst firing rate [10]: significantly inhibited
food intake [11]: reduced
rheobase under constant exposure [12]: maintained elevated rheobase
PgP substrate [2]: not a PgP substrate
brain penetrance [13]: excellent brain penetrance
depolarization [14]: +17.2 ± 2.4 mV
duration of sustained depolarization [15]: 14 to 22 days
